“And” between values parts separate entries of the source, which are not always exact repeats. Identical values can stand only once. Like-named read-outs stand apart in the source and are kept apart here.
Key:
termites [1] = assay: Topical assay against termites (acute toxicity); type: in vivo; conditions: for LD50 against termites by topical application: worker termites, mortality after 48 h, mean ± SE of four replications; for Insecticidal activity relative to mimosine: higher than mimosine, from Table 1 LD50
Protocol: An acute toxicity bioassay was performed by topical application to worker termites. A series of seven different doses (0.25, 0.5, 1.5, 2.5, 7.5, 12.5, and 25 μg/termite) was prepared in ethanol solution for each tested sample. Aliquots (0.5 μL) of diluted samples were applied topically to the abdomens of worker termites. Controls were treated with 0.5 μL ethanol only. Termites were transferred into petri dishes (4.2-cm diameter) lined with filter paper and kept in an incubator at 23–25 °C. A few drops of distilled water were supplied daily to the bottom edge of each dish to maintain moisture during the experiment. Four replicates of 20 termites each were used per treatment. Fenitrothion and rotenone were used as positive controls. Mortality of insects was evaluated after 48 h treatment. […] LD50 values were calculated by probit analysis using Graphpad Prism 6.01 (GraphPad, La Jolla, CA, USA).

termites [2] = assay: No-choice contact assay against termites; type: in vivo; conditions: no-choice contact method, seven days treatment
Protocol: The no-choice bioassay method as described by Tawata et al. was used to evaluate insecticidal activity. […] Filter paper treated with ethanol and acetone was used as the control. After removing the solvent from treated filter paper by air drying at ambient temperature for 24 h, 20 termites were placed onto each paper. The dishes were covered and placed in incubator at ±23 °C. A few drops of distilled water were supplied daily to the bottom edge of each petri dish to maintain moisture during the experiment. The experiment was performed using four replicates of each treatment and was repeated two times. Mortality was evaluated after seven days treatment. […] Insect mortality rate was calculated as a percentage in comparison with the control group. Rotenone and fenitrothion were used as positive controls.

Caenorhabditis elegans = assay: Nematicidal activity assay, 96-well microplate method; type: in vivo
Protocol: The nematicidal activity assay was conducted according to previously described procedures with minor modifications. The nematode Caenorhabditis elegans was cultivated on nematode growth medium (NGM) [3 g NaCl, 15 g agar, 2.5 g polypeptone, 136.1 g KH2OP4, 17.9 g KOH, 1 mL 1 M MgSO4, 1 mL 1 M CaCl2, 1 mL cholesterol (5 mg/mL), and 500 μL ampicillin (100 μg/mL)] plate covered with Escherichia coli strain OP50. The ampicillin-resistant OP50 was used as a feed source to prevent cross-contamination of the nematode culture. The NGM plates contained high densities of worms after 4 days incubation at 20 °C. For preparation of synchronous worm culture, worms were rinsed from the agar plate with S-basal buffer (5.85 g NaCl, 1 g K2HPO4, 6 g KH2PO4, and 1 mL cholesterol [5 mg/mL ethanol]/L), washed twice with S-basal buffer, and added to household bleach/10 N NaOH solution. The supernatant was shaken for 10–15 min, washed three times by centrifugation for 1 min at 3000 rpm, and then resuspended in S-basal buffer. One hundred microliters of worm/OP50 (1.2 × 10^9 bacteria/mL) solution was transferred into each well of a 96-well plate, and 20 μL sample stock solution was added to give final concentrations 25, 50, 100, 250, and 500 μM. The plate was shaken thoroughly for 2–3 min and incubated at 20 °C. Water was used as a negative control. The experiment was performed using four replicates of each treatment and was repeated two times. Dead and active nematodes were recorded after 48 h treatment. Nematode mortality rate was calculated as a percentage in comparison with the control group.

[3] = target: acetylcholinesterase (AChE) from termite whole bodies; assay: Acetylcholinesterase (AChE) inhibition, modified Ellman's method; type: biochemical, termites; conditions: crude enzyme from termite whole bodies; for IC50: pH 8.0, 25 °C, read-out: IC50 against AChE
Protocol: Whole bodies of termites (20 mg) were homogenized in 1 mL of 0.1 M phosphate buffer (pH 8.0), and the homogenate was centrifuged at 12,000 rpm for 20 min. The supernatant was used as the enzyme source. All procedural steps for preparing the crude enzyme were performed at 4 °C [26]. The AChE activity was measured using the modified Ellman’s method. Twenty-five microliters of sample was transferred into each well of a 96-well microplate containing 125 μL 0.1 M phosphate buffer (pH 8.0), and 30 μL of the enzyme solution was added to each well. The mixture was incubated for 10 min at 25 °C, after which 50 μL of 5,5′-dithiobis-(2-nitrobenzoic acid) (final concentration 0.4 mM) and 25 μL of acetylthiocholine iodide (final concentration 1 mM) were added. The control was treated by adding 25 μL water. Enzyme activity was measured for 20 min at 412 nm. The AChE inhibition assay was performed using four replicates of each treatment and was repeated two times. The inhibition rate of AChE activity was calculated as a percentage as follows: Inhibition (%) = (Ao − AE)/Ao × 100(1) where Ao is the absorbance of the control, and AE is the absorbance of the tested sample.

[4] = read-out: Nematicidal activity IC50, C. elegans, 48 h treatment, 20 °C
[5] = Caenorhabditis elegans, C. elegans, 48 h treatment, 20 °C, read-out: Nematicidal activity IC50

Structure (SMILES) | LD50 against termites by topical application (termites [1]) | Mortality (%) (termites [2]; 50 μg/mL) | Mortality (%) (termites [2]; 100 μg/mL) | Mortality (%) (termites [2]; 250 μg/mL) | IC50 (Caenorhabditis elegans; [4]) | IC50 [3] | IC50 (Caenorhabditis elegans; Caenorhabditis elegans, 48 h, read-out: Nematicidal activity IC50, C. elegans, 48 h treatment, 20 °C) | Insecticidal activity relative to mimosine (termites [1]) | IC50 (Caenorhabditis elegans; [5]) | Mortality (%) (termites [2]; 5 μg/mL) | Mortality (%) (termites [2]; 10 μg/mL) | Mortality (%) (termites [2]; 15 μg/mL) | AChE inhibitory activity (in words) [3]
COP1(=S)N[C@@H](Cn2ccc(=O)c(O)c2)CO1 (stereo partly drawn) [Compound 1a, 3-Hydroxy-1-(((4S)-2-methoxy-2-sulfido-1,3,2-oxazaphospholidin-4-yl)methyl)pyridin-4(1H)-one] | 0.5 μg/insect and 0.5 ± 0.1 fg μg/insect | 52%–62% and 62.5 ± 1.8 a % | 71%–88% and 88.8 ± 0.9 a % | 90.6 ± 1.3 a % | 31.8 µM | 95.9 µM |  |  |  |  |  |  | 
CCOP1(=S)N[C@@H](Cn2ccc(=O)c(O)c2)CO1 (stereo partly drawn) [Compound 1b, 1-(((4S)-2-Ethoxy-2-sulfido-1,3,2-oxazaphospholidin-4-yl)methyl)-3-hydroxypyridin-4(1H)-one] | 0.7 μg/insect and 0.7 ± 0.1 ef μg/insect | 52%–62% and 52.5 ± 3.5 ab % | 71%–88% and 71.9 ± 1.3 b % | 84.4 ± 2.2 ab % | 50.2 µM | 104 µM |  |  |  |  |  |  | 
CCCOP1(=S)N[C@@H](Cn2ccc(=O)c(O)c2)CO1 (stereo partly drawn) [Compound 1c, 3-Hydroxy-1-(((4S)-2-propoxy-2-sulfido-1,3,2-oxazaphospholidin-4-yl)methyl)pyridin-4(1H)-one] | 0.8 ± 0.1 ef μg/insect | 45.6 ± 0.4 bc % | 59.4 ± 1.3 cd % | 77.5 ± 0.9 b % |  |  | 116 µM |  |  |  |  |  | 
COP1(=S)N[C@@H](Cn2ccc(=O)c(O)c2)CO1 (stereo partly drawn) [Compound 2a, 3-Hydroxy-1-(((4S)-2-methoxy-2-sulfido-1,3,2-oxazaphospholidin-4-yl)methyl)pyridin-4(1H)-one] | 1.2 ± 0.2 de μg/insect | 48.8 ± 2.5 bc % | 70.6 ± 0.6 b % | 82.5 ± 1.3 ab % | 252 µM |  |  |  |  |  |  |  | 
CCOP1(=S)N[C@@H](Cn2ccc(=O)c(O)c2)CO1 (stereo partly drawn) [Compound 2b, 1-(((4S)-2-ethoxy-2-sulfido-1,3,2-oxazaphospholidin-4-yl)methyl)-3-hydroxypyridin-4(1H)-one] | 2.1 ± 0.4 c μg/insect | 42.5 ± 2.5 bcd % | 52.5 ± 2.5 de % | 63.8 ± 0.0 c % | 187 µM |  |  |  |  |  |  |  | 
CCCOP1(=S)N[C@@H](Cn2ccc(=O)c(O)c2)CO1 (stereo partly drawn) [Compound 2c, 3-Hydroxy-1-(((4S)-2-propoxy-2-sulfido-1,3,2-oxazaphospholidin-4-yl)methyl)pyridin-4(1H)-one] | 3.1 ± 0.5 b μg/insect | 29.4 ± 1.9 e % | 44.4 ± 1.9 e % | 52.5 ± 3.8 d % | 218 µM |  |  |  |  |  |  |  | 
[2H]C([2H])(O)[C@@H](N)Cn1ccc(=O)c(O)c1 [D-mimosinol, deuterated mimosinol] | 1.8 ± 0.3 d μg/insect | 33.1 ± 1.9 de % | 53.8 ± 3.8 de % | 60.6 ± 0.6 cd % |  |  |  | > 30 times | 390 µM |  |  |  | 
COP(=S)(OC)Oc1ccc([N+](=O)[O-])c(C)c1 [Fenitrothion, reference compound] | 0.025 ± 0.0 g μg/insect |  |  |  |  | 182 µM |  |  |  | 26.9 ± 1.3% | 69.4 ± 0.6% | 83.8 ± 1.9% | 
NC(Cn1ccc(=O)c(O)c1)C(=O)O (stereo not drawn) [Mimosine, β-[N-(3-hydroxy-4-oxypyridyl)]-α-aminopropionic acid] | 54.1 ± 5.9 a μg/insect | 2.5 ± 1.1 f % | 7.5 ± 1.0 f % | 9.1 ± 2.0 e % |  | 1530 µM |  |  | 16.8 µM |  |  |  | not active
N[C@H](CO)Cn1ccc(=O)c(O)c1 [Mimosinol, mimosinol] | 1.2 ± 0.2 de μg/insect | 38.1 ± 1.3 cde % | 52.5 ± 2.7 de % | 68.5 ± 0.6 c % |  |  |  | > 30 times | 376 µM |  |  |  | 
C=C(C)[C@H]1Cc2c(ccc3c2O[C@@H]2COc4cc(OC)c(OC)cc4[C@@H]2C3=O)O1 [Rotenone, rotenone, reference compound] | 0.8 ± 0.2 ef μg/insect | 48.8 ± 0.9 bc % | 68.1 ± 1.3 bc % | 80.0 ± 0.9 b % |  |  |  |  |  |  |  |  | 
O=c1cc(CO)occ1O [kojic acid] |  |  |  |  |  | 5480 µM |  |  | 328 µM |  |  |  | not active
